From patent publication US20120214743A1, “ITCH SUPPRESSANT” (University of Occupational and Environmental Health, Japan, priority 2009, published 2012)
Ends that are not written are not given here. * marks the point of attachment. SO3H = O=S(=O)(O)*

What was measured:
ICR mice = assay: SP-induced scratch behavior in ICR mice; type: in vivo, mouse; settings: transdermal, 0.5 nmol/site in acetone/olive (3:1), tape-stripped skin, 3-4 minutes before SP 100 nmol/site intradermal; FIG. 3
Description: Since it is considered that external administration of CCK affects keratinocytes, at first, CCK2R agonist was administered transdermally (applying the solution prepared using acetone-olive (3:1)) to itch-related behavior model (ICR mice administered intradermally with SP (100 nmol)).
The hair was clipped over the rostral part of the murine back one or two days prior to experiment. Before behavioral recording, each mouse (4 animals per observation) was put into an acrylic cage (18×23×11 cm) for at least 1 hr for acclamation. An intradermal injection of SP (100 nmol in normal saline per site) induces scratching of the skin around the injected site by the hind paws in mice. CCKs were topically applied in the two ways, percutaenous application and intradermal injection. For percutaneous application, the shaved back skin was stripped with Scotch tape (3M) 6 times the day before the experiment. The mice were painted on the clipped back with 20 μL CCK (0.5 nmol/site) in acetone/olive (3:1) 3-4 minutes before SP injection (100 nmol/site). […] Immediately after treatment, the animals were put back into the same cage and their behavior was videotaped using a digital video camera for 40 minutes. The frequency of scratch toward the injected site by hind paws was counted for the first 20 minutes with the video.

[1] = test system: normal human keratinocytes (NHEKs); assay: DNA microarray of mRNA expression in stimulated normal human keratinocytes; type: cell-based; settings: histamine 10 μM/mL, SLIGRL-NH2 100 nM
Description: For DNA microarray analysis, total RNA was extracted from NHEKs with the RNeasy Mini Kit (QIAGEN, Valencia, Calif.). Images obtained from a plate reader were analyzed with DNASIS Array (DNA CHIP RESERCH Inc., Hitachi Software Engineering, Tokyo, Japan), according to the manufacturer's instructions.
The values are log2 (mRNA expression level of each stimulated sample/expression level of the control).

CCK2R = assay: Western blotting of CCK2R in ICR mouse keratinocytes incubated with SP; type: cell-based; settings: exposed to SP for 5 or 6 hours, FIG. 2a
Description: (§1) Keratinocytes from ICR mice were stimulated with SP (10^−8 M) in six-well plates (Corning Glass Works) for 0.5-24 hours, harvested with a rubber policeman, and subjected to extraction with RIPA buffer (Wako, Osaka, Japan; Tris-HCl (pH8.0), 150 mm sodium chloride, 0.5% (wt/vol) sodium deoxycholate, 0.1% (wt/vol) SDS, and 1.0% (wt/vol) NP-40 substitute). Protein samples (20 μg) were separated by 8% SDS-polyacrylamide gel electrophoresis and electroblotted onto polyvinylidene difluoride membranes for 2 hours at 180 mA. After blocking with skim milk solution, the membranes were incubated with rabbit anti-mouse CCK1R (SC-33220; 1:1,000, Santa Cruz, Santa Cruz, Calif.) polyclonal antibodies,or CCK2R (SC-33221; 1:1,000, Santa Cruz) polyclonal antibodies, and the reaction was detected with horseradish peroxidase—conjugated goat anti-rabbit IgG (1:3,000, Bio-Rad, Hercules, Calif.). […] Bands were quantified by densitometry with the help of a CS Analyzer version 2.0 (ATTO, Tokyo, Japan). […]
(§2) To determine the effect of SP on keratinocytes, ICR mouse keratinocytes were incubated with SP for 30 min to 24 hours and the expression of CCK2R and CCK1R were analyzed by western blotting. CCK2R was detected with antibodies as 78 kDa band, and increased in keratinocytes exposed to SP for 5 or 6 hours (FIG. 2a). […]

CCK1R = assay: Western blotting of CCK1R in ICR mouse keratinocytes incubated with SP; type: cell-based; settings: SP 30 min to 24 hours, FIG. 2b
Description: as §1, §2

Compound	scratch behavior (frequency of scratch, first 20 minutes) (ICR mice)	ACTL7B mRNA, log2 (expression level of stimulated sample/expression level of the control) ([1]; NHEKs, Ca 0.6 mM, SP 10^−6 M)	ANKRD6 mRNA, log2 (expression level of stimulated sample/expression level of the control) ([1]; NHEKs, Ca 0.6 mM, SP 10^−6 M)	BUB1B mRNA, log2 (expression level of stimulated sample/expression level of the control) ([1]; NHEKs, Ca 0.6 mM, SP 10^−6 M)	CCK2R mRNA, log2 (expression level of stimulated sample/expression level of the control) ([1]; NHEKs, Ca 0.6 mM, SP 10^−6 M)	FCN3 mRNA, log2 (expression level of stimulated sample/expression level of the control) ([1]; NHEKs, Ca 0.6 mM, SP 10^−6 M)	MAP3K1 mRNA, log2 (expression level of stimulated sample/expression level of the control) ([1]; NHEKs, Ca 0.6 mM, SP 10^−6 M)	MMP9 mRNA, log2 (expression level of stimulated sample/expression level of the control) ([1]; NHEKs, Ca 0.6 mM, SP 10^−6 M)	PDE7B mRNA, log2 (expression level of stimulated sample/expression level of the control) ([1]; NHEKs, Ca 0.6 mM, SP 10^−6 M)	PTN mRNA, log2 (expression level of stimulated sample/expression level of the control) ([1]; NHEKs, Ca 0.6 mM, SP 10^−6 M)	SERPINI2 mRNA, log2 (expression level of stimulated sample/expression level of the control) ([1]; NHEKs, Ca 0.6 mM, SP 10^−6 M)	other results
Met-Gly-Trp-Met-Asp-Phe-NH2 (MGWMDF-NH2) [CCK6, cholecystokinin analogue without the tyrosine]	no significant reduction	–	–	–	–	–	–	–	–	–	–	–
Ser-Leu-Ile-Gly-Arg-Leu-NH2 (SLIGRL-NH2) [synthetic agonist of PAR-2]	–	0.84 log2	−0.17 log2	0.52 log2	0.06 log2	−0.62 log2	0.64 log2	0.11 log2	1.00 log2	0.12 log2	0.72 log2	ARG1 mRNA, log2 (expression level of stimulated sample/expression level of the control) ([1]; NHEKs, Ca 0.6 mM, SP 10^−6 M): 0.71 log2; CYP17A1 mRNA, log2 (expression level of stimulated sample/expression level of the control) ([1]; NHEKs, Ca 0.6 mM, SP 10^−6 M): 0.92 log2; changes in the expression levels of CCK2R in stimulated NHEKs [1]: no significant changes
Asp-Tyr-Met-Gly-Trp-Met-Asp-Phe-NH2 (DYMGWMDF-NH2) [CCK8, cholecystokinin analogue in which the tyrosine is not sulfated]	no significant reduction	–	–	–	–	–	–	–	–	–	–	–
Tyr-Met-Gly-Trp-Met-Asp-Phe-NH2 (YMGWMDF-NH2) [CCK7, cholecystokinin analogue in which the tyrosine is not sulfated]	no significant reduction	–	–	–	–	–	–	–	–	–	–	–
Tyr(SO3H)-Met-Gly-Trp-Met-Asp-Phe-NH2 (Y(SO3H)MGWMDF-NH2; N-terminus assumed; SMILES CSCC[C@H](NC(=O)[C@H](Cc1c[nH]c2ccccc12)NC(=O)CNC(=O)[C@H](CCSC)NC(=O)[C@@H](N)Cc1ccc(OS(=O)(=O)O)cc1)C(=O)N[C@@H](CC(=O)O)C(=O)N[C@@H](Cc1ccccc1)C(N)=O) [CCK7S, natural type cholecystokinin, tyrosine at seventh position from C-terminal sulfated]	significant reduction	–	–	–	–	–	–	–	–	–	–	–
Substance P [SP]	–	0.99 log2	3.20 log2	3.06 log2	8.67 log2	4.50 log2	1.06 log2	1.12 log2	1.02 log2	4.04 log2	1.00 log2	CCK2R expression (78 kDa band) in keratinocytes exposed to SP (CCK2R): increased; AR mRNA, log2 (expression level of stimulated sample/expression level of the control) ([1]; NHEKs, Ca 0.6 mM, SP 10^−6 M): 0.99 log2; ARG1 mRNA, log2 (expression level of stimulated sample/expression level of the control) ([1]; NHEKs, Ca 0.6 mM, SP 10^−6 M): 1.69 log2; CKM mRNA, log2 (expression level of stimulated sample/expression level of the control) ([1]; NHEKs, Ca 0.6 mM, SP 10^−6 M): 1.72 log2; CLEC7A mRNA, log2 (expression level of stimulated sample/expression level of the control) ([1]; NHEKs, Ca 0.6 mM, SP 10^−6 M): 1.16 log2; CYP17A1 mRNA, log2 (expression level of stimulated sample/expression level of the control) ([1]; NHEKs, Ca 0.6 mM, SP 10^−6 M): 1.40 log2; F10 mRNA, log2 (expression level of stimulated sample/expression level of the control) ([1]; NHEKs, Ca 0.6 mM, SP 10^−6 M): 1.74 log2; ICAM1 mRNA, log2 (expression level of stimulated sample/expression level of the control) ([1]; NHEKs, Ca 0.6 mM, SP 10^−6 M): 1.16 log2; NDRG4 mRNA, log2 (expression level of stimulated sample/expression level of the control) ([1]; NHEKs, Ca 0.6 mM, SP 10^−6 M): 1.00 log2; RASSF7 mRNA, log2 (expression level of stimulated sample/expression level of the control) ([1]; NHEKs, Ca 0.6 mM, SP 10^−6 M): 1.82 log2; SV2B mRNA, log2 (expression level of stimulated sample/expression level of the control) ([1]; NHEKs, Ca 0.6 mM, SP 10^−6 M): 1.54 log2; CCK1R expression in keratinocytes exposed to SP (CCK1R): not augmented
NCCc1c[nH]cn1 [histamine, Histamine]	–	0.63 log2	0.00 log2	−1.09 log2	−0.01 log2	−0.23 log2	0.88 log2	4.02 log2	0.12 log2	−0.14 log2	0.38 log2	CKM mRNA, log2 (expression level of stimulated sample/expression level of the control) ([1]; NHEKs, Ca 0.6 mM, SP 10^−6 M): 1.04 log2; F10 mRNA, log2 (expression level of stimulated sample/expression level of the control) ([1]; NHEKs, Ca 0.6 mM, SP 10^−6 M): 1.36 log2; NDRG4 mRNA, log2 (expression level of stimulated sample/expression level of the control) ([1]; NHEKs, Ca 0.6 mM, SP 10^−6 M): 1.59 log2; changes in the expression levels of CCK2R in stimulated NHEKs [1]: no significant changes
